The text below walks through data of ChEMBL document CHEMBL4811257, “Dipeptide inhibitors of the prostate specific membrane antigen (PSMA): A comparison of urea and thiourea derivatives” (Bioorg Med Chem Lett, 2021).

Data set [1] is described as follows: Stability of the compound in PBS at pH 7 measured for 48 hrs by 1H-NMR analysis. It is filed as physicochemical. The following applies: buffer, pH 7, 48 h.
Data set [2] in a line: Stability of the compound in presence of GCPII/PSMA expressing human DU-145 cells by 1H-NMR analysis. It is filed as ADME, cell-based.
In data set [3] the target is Glutamate carboxypeptidase 2 (Homo sapiens, UniProt Q04609). Put plainly: Inhibition of GCPII (unknown origin) expressed in DU-145 cells after 1 hr by [67Ga]Ga-DOTA-PSMA competitive binding assay with gamma counting.
Glutamate carboxypeptidase 2, sequence (Q04609 whole entry): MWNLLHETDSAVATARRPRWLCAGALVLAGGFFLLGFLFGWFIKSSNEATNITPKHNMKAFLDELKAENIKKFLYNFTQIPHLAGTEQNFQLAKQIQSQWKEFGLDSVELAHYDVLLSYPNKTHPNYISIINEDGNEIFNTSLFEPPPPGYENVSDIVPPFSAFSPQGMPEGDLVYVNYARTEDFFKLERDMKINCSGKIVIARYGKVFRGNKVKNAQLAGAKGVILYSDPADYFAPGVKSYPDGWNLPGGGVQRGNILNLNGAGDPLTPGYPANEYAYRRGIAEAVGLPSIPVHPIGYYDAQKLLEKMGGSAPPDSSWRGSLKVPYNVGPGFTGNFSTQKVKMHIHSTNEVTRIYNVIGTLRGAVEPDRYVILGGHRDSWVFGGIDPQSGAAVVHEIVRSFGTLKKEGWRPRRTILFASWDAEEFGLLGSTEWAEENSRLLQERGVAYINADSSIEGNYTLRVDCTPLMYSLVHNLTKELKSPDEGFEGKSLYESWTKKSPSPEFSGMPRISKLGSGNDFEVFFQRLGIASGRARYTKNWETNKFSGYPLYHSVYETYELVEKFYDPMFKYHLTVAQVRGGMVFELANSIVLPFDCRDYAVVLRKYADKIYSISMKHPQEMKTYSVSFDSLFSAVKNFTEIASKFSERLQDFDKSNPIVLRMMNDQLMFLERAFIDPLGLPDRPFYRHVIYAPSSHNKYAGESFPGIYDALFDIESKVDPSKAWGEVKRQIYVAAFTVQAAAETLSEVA

pIC50: −log10 of the molar value.

On to `O=C(O)CC[C@H](NC(=O)N[C@@H](CCC(=O)O)C(=O)O)C(=O)O`, for which the Stabilty result in data set [1] and in data set [2] was “Stable” throughout. The pIC50 in data set [3] was 5.87.
Turning to `O=C(O)CC[C@H](NC(=S)N[C@@H](CCC(=O)O)C(=O)O)C(=O)O`, the Stabilty result in data set [1] and in data set [2] was “Stable” each time. In data set [3], this molecule gave a pIC50 of 3.87.
